Test results taken from PubChem BioAssay AID330 (DTP/NCI, 2004).
“And” between values parts separate entries of the source, which are not always exact repeats. Identical values can stand only once. Toxic doses and inconclusive results are not listed.

Test system: P388 leukemia ip, CD2F1 mice, survival T/C
Test: NCI In Vivo Anticancer Drug Screen. Data for tumor model P388 Leukemia (intraperitoneal) in CD2F1 (CDF1) mice
Conditions: endpoint: median survival time, higher = longer survival
Summary of the method: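 Mice carrying the transplanted tumor received test compound or vehicle. Survival was recorded in each group, and the value is the treated-group measurement divided by that of the vehicle-treated control group.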

[1] = dose: 50.0 mg/kg/injection, schedule: Q01DX009 (ip), vehicle: saline with Tween-80
[2] = dose: 100.0 mg/kg/injection, schedule: Q01DX009 (ip), vehicle: saline with Tween-80
[3] = dose: 200.0 mg/kg/injection, schedule: Q01DX009 (ip), vehicle: saline with Tween-80
[4] = dose: 100.0 mg/kg/injection, schedule: Q04DX003 (ip), vehicle: Klucel (hydroxypropylcellulose) (HPC)
[5] = dose: 200.0 mg/kg/injection, schedule: Q04DX003 (ip), vehicle: Klucel (hydroxypropylcellulose) (HPC)
[6] = dose: 30.0 mg/kg/injection, schedule: Q01DX005 (ip), vehicle: Klucel (hydroxypropylcellulose) (HPC)
[7] = dose: 50.0 mg/kg/injection, schedule: Q01DX005 (ip), vehicle: saline with Tween-80
[8] = dose: 100.0 mg/kg/injection, schedule: Q01DX005 (ip), vehicle: saline with Tween-80
[9] = dose: 60.0 mg/kg/injection, schedule: Q01DX005 (ip), vehicle: Klucel (hydroxypropylcellulose) (HPC)
[10] = dose: 120.0 mg/kg/injection, schedule: Q01DX005 (ip), vehicle: Klucel (hydroxypropylcellulose) (HPC)
[11] = dose: 240.0 mg/kg/injection, schedule: Q01DX005 (ip), vehicle: Klucel (hydroxypropylcellulose) (HPC)
[12] = dose: 50.0 mg/kg/injection, schedule: Q01DX005 (ip), vehicle: Klucel (hydroxypropylcellulose) (HPC)
[13] = dose: 100.0 mg/kg/injection, schedule: Q01DX005 (ip), vehicle: Klucel (hydroxypropylcellulose) (HPC)
[14] = dose: 200.0 mg/kg/injection, schedule: Q01DX005 (ip), vehicle: Klucel (hydroxypropylcellulose) (HPC)
[15] = dose: 60.0 mg/kg/injection, schedule: Q01DX005 (ip), vehicle: saline with Tween-80
[16] = dose: 120.0 mg/kg/injection, schedule: Q01DX005 (ip), vehicle: saline with Tween-80
[17] = dose: 240.0 mg/kg/injection, schedule: Q01DX005 (ip), vehicle: saline with Tween-80
[18] = dose: 50.0 mg/kg/injection, schedule: Q01DX009 (ip), vehicle: Klucel (hydroxypropylcellulose) (HPC)
[19] = dose: 100.0 mg/kg/injection, schedule: Q01DX009 (ip), vehicle: Klucel (hydroxypropylcellulose) (HPC)
[20] = dose: 200.0 mg/kg/injection, schedule: Q01DX009 (ip), vehicle: Klucel (hydroxypropylcellulose) (HPC)
[21] = dose: 200.0 mg/kg/injection, schedule: Q01DX005 (ip), vehicle: saline with Tween-80
[22] = dose: 100.0 mg/kg/injection, schedule: Q04DX003 (ip), vehicle: saline with Tween-80
[23] = dose: 400.0 mg/kg/injection, schedule: Q04DX003 (ip), vehicle: saline with Tween-80

With `CC(C)(OC(=O)NC(Cc1cnc[nH]1)C(=O)O)c1ccc(N=Nc2ccccc2)cc1` (configuration not stated) the T/C [1] was 97 % of control, the T/C [2] was 94 % of control and the T/C [3] was 97 % of control.
`CCN(CC)CN1C(=O)CC2(C1=O)c1ccccc1-c1ccccc12` was tested, and the T/C (dose: 100.0 mg/kg/injection, schedule: Q01DX001 (ip), vehicle: water) was 109 % of control, the T/C (dose: 200.0 mg/kg/injection, schedule: Q01DX001 (ip), vehicle: water) was 106 % of control and the T/C (dose: 400.0 mg/kg/injection, schedule: Q01DX001 (ip), vehicle: water) was 110 % of control.
`CC(C)(C)P(O)(=S)c1ccccc1` (configuration not stated) (tested in a mixture with another compound) was tested, and the T/C [4] was 102 % of control, the T/C [5] was 102 % of control and the T/C (dose: 400.0 mg/kg/injection, schedule: Q04DX003 (ip), vehicle: Klucel (hydroxypropylcellulose) (HPC)) was 100 % of control.
For `O=c1oc2nc(-c3ccccc3)[nH]c(=O)c2c2c1CCCC2`, the T/C (dose: 15.0 mg/kg/injection, schedule: Q01DX005 (ip), vehicle: Klucel (hydroxypropylcellulose) (HPC)) was 92 % of control and the T/C [6] was 86 % of control.
For `CC1=NOC(=O)/C1=C/c1ccc(Cl)c(Cl)c1`, the T/C [7] was 112 % of control and the T/C [8] was 114 % of control.
In the case of `O=C(O)c1cc2c3ccccc3sc2c2ccccc12`, the T/C [6] is reported as 93 % of control, the T/C [9] is reported as 93 % of control and the T/C [10] is reported as 90 % of control. For the same molecule, the T/C [11] was 90 % of control.
In the case of `COc1cc(-n2c(C)nc3ncn(-c4ccccc4)c3c2=O)cc(OC)c1OC`, the T/C [12] is reported as 98 % of control, the T/C [13] is reported as 102 % of control and the T/C [14] is reported as 105 % of control.
`COC(=O)c1cc(=O)n2c(nc3ccccc32)s1` was tested, and the T/C (dose: 50.0 mg/kg/injection, schedule: Q01DX005 (ip), vehicle: acetone) was 108 % of control, the T/C (dose: 100.0 mg/kg/injection, schedule: Q01DX005 (ip), vehicle: acetone) was 104 % of control and the T/C (dose: 200.0 mg/kg/injection, schedule: Q01DX005 (ip), vehicle: acetone) was 101 % of control.
`CCc1c2cc3c(cc2cc2c4cc5c(cc4cc[n+]12)OCO5)OCO3` (tested in a mixture with another compound) was tested, and the T/C (dose: 0.5 mg/kg/injection, schedule: Q01DX009 (ip), vehicle: Klucel (hydroxypropylcellulose) (HPC)) was 117 % of control, the T/C (dose: 1.0 mg/kg/injection, schedule: Q01DX009 (ip), vehicle: Klucel (hydroxypropylcellulose) (HPC)) was 121 % of control and the T/C (dose: 5.0 mg/kg/injection, schedule: Q01DX009 (ip), vehicle: Klucel (hydroxypropylcellulose) (HPC)) was 153 % of control and 174 % of control.
`C=C1N=NN(c2ccc([N+](=O)[O-])cc2)C1N1CCOCC1` (configuration not stated) was tested, and the T/C [9] was 100 % of control, the T/C [10] was 101 % of control and the T/C [11] was 105 % of control.
`NC(CCCCC(N)C(=O)c1ccccc1)C(=O)c1ccccc1` (configuration not stated) was tested, and the T/C [15] was 98 % of control, the T/C [16] was 93 % of control and the T/C [17] was 94 % of control.
`CC(=O)OC1C=CN(C(C)=O)C(SC(C)(C)C)C1(C)O` (configuration not stated) was tested, and the T/C [18] was 101 % of control and 119 % of control, the T/C [19] was 107 % of control and 112 % of control and the T/C [20] was 113 % of control and 120 % of control. The T/C (dose: 400.0 mg/kg/injection, schedule: Q01DX009 (ip), vehicle: Klucel (hydroxypropylcellulose) (HPC)) was 110 % of control.
`OCC(O)C1OC(c2ccccc2)OC(CO)C1O` (configuration not stated) was tested, and the T/C [7] was 100 % of control, the T/C [8] was 109 % of control and the T/C [21] was 102 % of control.
With `COc1cc(C2c3cc4c(cc3CC3COC(=O)C32)OCO4)cc(OC)c1O` (configuration not stated) the T/C (dose: 0.5 mg/kg/injection, schedule: Q01DX009 (ip), vehicle: saline with Tween-80) was 105 % of control, the T/C (dose: 1.0 mg/kg/injection, schedule: Q01DX009 (ip), vehicle: saline with Tween-80) was 103 % of control and the T/C (dose: 2.0 mg/kg/injection, schedule: Q01DX009 (ip), vehicle: saline with Tween-80) was 114 % of control. The T/C (dose: 3.1 mg/kg/injection, schedule: Q01DX009 (ip), vehicle: saline with Tween-80) was 123 % of control and the T/C (dose: 4.0 mg/kg/injection, schedule: Q01DX009 (ip), vehicle: saline with Tween-80) was 107 % of control.
With `CCCCCCCCCCCCCCCCOP(=O)([O-])OCC[N+](C)(C)C` the T/C (dose: 15.0 mg/kg/injection, schedule: Q01DX005 (ip), vehicle: saline) was 100 % of control, the T/C (dose: 30.0 mg/kg/injection, schedule: Q01DX005 (ip), vehicle: saline) was 100 % of control and the T/C (dose: 60.0 mg/kg/injection, schedule: Q01DX005 (ip), vehicle: saline) was 102 % of control and 103 % of control.
`CCOC(=O)[C]1([Sb]([CH3])[CH3])N=NC(C(=O)OC)=C1C(=O)OC` (configuration not stated) was tested, and the T/C (dose: 25.0 mg/kg/injection, schedule: Q04DX003 (ip), vehicle: saline) was 101 % of control and 98 % of control, the T/C (dose: 50.0 mg/kg/injection, schedule: Q04DX003 (ip), vehicle: saline) was 100 % of control and 102 % of control and the T/C [22] was 108 % of control. The T/C (dose: 100.0 mg/kg/injection, schedule: Q04DX003 (ip), vehicle: saline) was 102 % of control and 104 % of control, the T/C (dose: 200.0 mg/kg/injection, schedule: Q04DX003 (ip), vehicle: saline) was 107 % of control and 98 % of control and the T/C [23] was 105 % of control.
`Cc1cc(C(C)(C)C)ccc1SP(Sc1ccc(C(C)(C)C)cc1C)Sc1ccc(C(C)(C)C)cc1C` was tested, and the T/C [18] was 100 % of control, the T/C [19] was 92 % of control and the T/C [20] was 92 % of control.
With `Cc1ccc2ccccc2[n+]1CC(=O)c1ccc([N+](=O)[O-])cc1` the T/C (dose: 6.25 mg/kg/injection, schedule: Q01DX005 (ip), vehicle: Klucel (hydroxypropylcellulose) (HPC)) was 108 % of control, the T/C (dose: 12.5 mg/kg/injection, schedule: Q01DX005 (ip), vehicle: Klucel (hydroxypropylcellulose) (HPC)) was 108 % of control and the T/C (dose: 25.0 mg/kg/injection, schedule: Q01DX005 (ip), vehicle: Klucel (hydroxypropylcellulose) (HPC)) was 103 % of control. The T/C [7] was 96 % of control, the T/C [8] was 102 % of control and the T/C [21] was 111 % of control.
`Cc1nnc2c(NO)nccn12` was tested, and the T/C (dose: 75.0 mg/kg/injection, schedule: Q01DX001 (ip), vehicle: saline) was 99 % of control, the T/C (dose: 150.0 mg/kg/injection, schedule: Q01DX001 (ip), vehicle: saline) was 101 % of control and the T/C (dose: 300.0 mg/kg/injection, schedule: Q01DX001 (ip), vehicle: saline) was 96 % of control.
For `CCCC(=O)Nc1ncc([N+](=O)[O-])s1`, the T/C [1] was 95 % of control, the T/C [2] was 100 % of control and the T/C [3] was 90 % of control.
In the case of `O=[N+]([O-])c1ccc(N2C(c3ccccc3)=N[C@@H](N3CCCCC3)[C@@H]2N2CCCCC2)cc1`, the T/C [12] is reported as 97 % of control, the T/C [13] is reported as 100 % of control and the T/C [14] is reported as 93 % of control.
For `NC(=S)c1cccc(/C=N/O)n1`, the T/C (dose: 50.0 mg/kg/injection, schedule: Q04DX003 (ip), vehicle: Klucel (hydroxypropylcellulose) (HPC)) was 104 % of control, the T/C [4] was 99 % of control and the T/C [5] was 95 % of control.
For `O=C1OC(=O)C2CC3C(CC12)C1(Cl)C(Cl)=C(Cl)C3(Cl)C1(Cl)Cl` (configuration not stated), the T/C [12] was 104 % of control, the T/C [13] was 100 % of control and the T/C [14] was 107 % of control.
`CCOC(=O)CC(=O)c1ccc(C)cc1` was tested, and the T/C [22] was 100 % of control, the T/C (dose: 200.0 mg/kg/injection, schedule: Q04DX003 (ip), vehicle: saline with Tween-80) was 104 % of control and the T/C [23] was 109 % of control.
For `NS(=O)(=O)c1ccc(Nc2c3ccc(Cl)cc3nc3ncccc23)cc1`, the T/C [7] was 108 % of control, the T/C [8] was 101 % of control and the T/C [21] was 94 % of control.
With `CCCC1=CC(C)(C)CC(C)=C1` (tested in a mixture with another compound) the T/C (dose: 50.0 mg/kg/injection, schedule: Q01DX009 (ip), vehicle: saline sonified) was 95 % of control, the T/C (dose: 100.0 mg/kg/injection, schedule: Q01DX009 (ip), vehicle: saline sonified) was 95 % of control and the T/C (dose: 200.0 mg/kg/injection, schedule: Q01DX009 (ip), vehicle: saline sonified) was 90 % of control.
`CC(Cc1ccccc1)N(C)Cc1ccc(-c2ccccc2)o1` (configuration not stated) was tested, and the T/C [15] was 100 % of control, the T/C [16] was 108 % of control and the T/C [17] was 109 % of control.
With `CCCCOC(=O)CNCC(=O)OCCCC` the T/C [15] was 100 % of control, the T/C [16] was 101 % of control and the T/C [17] was 104 % of control.
